Test results as given in patent US11944661B2, “Pharmaceutical composition containing extract of leaves of Vaccinium bracteatum Thunb. for prevention or treatment of stress disease and depression” (JEONNAM BIOINDUSTRY FOUNDATION, priority 2017, dated 2024).
Where a name gives a salt, the structure may show the parent alone. Read-outs that look alike come from different tables or passages of the source.

Key:
SH-SY5Y cells = assay: Cytotoxicity of the pharmacological inhibitors alone, 24-hour incubation
Experimental: An experiment was carried out to find out the working signaling pathway responsible for the neuroprotective activity of the Vaccinium bracteatum Thunb. leaf extracts against corticosterone-induced neuronal damage. In this experiment, SH-SY5Y cells were pretreated for 1 hour with wortmanin, rapamycin, H89, and PD98059, which are respective pharmacological inhibitors of the PI3K (phosphoinositide 3-kinase), mTOR, PKA (protein kinase A), and MAPK/ERK kinase pathways and then incubated for 2 hours with the hot-water extracts of Vaccinium bracteatum Thunb. leaves (3 μg/ml). Thereafter, 24 hours of incubation with corticosterone (1 mM) was followed by measuring cell viability through MTT assay.
For use in the experiment, the inhibitors alone were assayed for cytotoxicity.

[1] = tested on: male ICR mice subjected to chronic restraint stress (CRS); assay: Forced swimming test (FST) in chronic restraint stress (CRS) mice; type: in vivo; conditions: three weeks of CRS; 10 mg/kg p.o
Experimental: In a forced swimming test (FST), which is a pre-swim test on the day before the main test (post-swim), tap water of around 25° C. was poured into a cylindrical water tank (about 20 cm in diameter, 40 cm in height) to the height of 15 cm from the bottom, after which the mice were put thereinto and forced to swim for 15 minutes. Then, the mice were withdrawn from the water, wiped with a dry towel, and returned to the breeding box. After 1 or 6 days of drug administration, the main test (post-swim) was performed and video was taken with forced swimming for 6 minutes with the mice in the cylinder. In the recorded images for the five minutes exclusive of the first one minute, the animal behavior was classified into three types for analysis: the animals were floating in the water, showing a slight movement, with only a part of the upper body including the face exposed on the water face (immobility behavior); the animals were swimming around the cylinder in the horizontal direction while splashing the water with their forepaws and rear paws (swimming behavior); and the animals were making the fierce movement of pulling the paws out of the water, scrapping the wall (climbing behavior). Times for the three movements were measured. Male ICR mice were purchased and subjected to chronic restraint stress (CRS). In this regard, a constant restraint stress was given by immobilizing the mice for 6 hours per day (a.m. 11 to p.m.5) in an acrylic box 20 cm in height and 7 cm in diameter for three weeks. The hot-water extracts of Vaccinium bracteatum Thunb. leaves were orally administered at each dose to the mice daily 30 min before the stress was given at the same time. For the control, the same volume of saline was administered. As a comparative group, escitalopram oxalate, which is an antidepressant, was orally administered. Animal behavior tests were performed the next day after 3 weeks of restraint stress stimulation. The open field test (OFT) was followed by the forced swimming test (FST). […]

male ICR mice = assay: Forced swimming test (FST) in normal mice after 1 or 6 days of oral administration; type: in vivo; conditions: comparative group, dose not given
Experimental: For use in assaying an antidepressant effect of the Vaccinium bracteatum Thunb. leaf extracts, male ICR mice, 6 weeks of age, were purchased from […], Korea. The animals were acclimated to a certain condition in an animal breeding room (temperature: 22±2° C., humidity: 50±5%, contrast: 12-hour light/12-hour dark cycle) for one week before use. Male ICR mice were orally administered the Vaccinium bracteatum Thunb. leaf extract the present invention while escitalopram oxalate was used as an antidepressant for a comparative group. Oral administration was conducted for 1 or 6 days according to the experiment. In a forced swimming test (FST), which is a pre-swim test on the day before the main test (post-swim), tap water of around 25° C. was poured into a cylindrical water tank (about 20 cm in diameter, 40 cm in height) to the height of 15 cm from the bottom, after which the mice were put thereinto and forced to swim for 15 minutes. Then, the mice were withdrawn from the water, wiped with a dry towel, and returned to the breeding box. After 1 or 6 days of drug administration, the main test (post-swim) was performed and video was taken with forced swimming for 6 minutes with the mice in the cylinder. In the recorded images for the five minutes exclusive of the first one minute, the animal behavior was classified into three types for analysis: the animals were floating in the water, showing a slight movement, with only a part of the upper body including the face exposed on the water face (immobility behavior); the animals were swimming around the cylinder in the horizontal direction while splashing the water with their forepaws and rear paws (swimming behavior); and the animals were making the fierce movement of pulling the paws out of the water, scrapping the wall (climbing behavior). Times for the three movements were measured.

corticosterone = assay: Serum stress hormone corticosterone level (ELISA) in normal mice after six days of administration; type: in vivo; conditions: comparative group, dose not given
Experimental: After six days of drug administration to mice in a normal state, effects on the level of the stress hormone corticosterone in sera of the mice were measured using the Abnova ELISA kit according to the manufacturer's instruction.

[2] = tested on: male ICR mice subjected to chronic restraint stress (CRS); assay: Open field test (OFT) in chronic restraint stress (CRS) mice; type: in vivo; conditions: three weeks of CRS; 5 minutes; positive control
Experimental: Male ICR mice were purchased and subjected to chronic restraint stress (CRS). In this regard, a constant restraint stress was given by immobilizing the mice for 6 hours per day (a.m. 11 to p.m.5) in an acrylic box 20 cm in height and 7 cm in diameter for three weeks. The hot-water extracts of Vaccinium bracteatum Thunb. leaves were orally administered at each dose to the mice daily 30 min before the stress was given at the same time. For the control, the same volume of saline was administered. As a comparative group, escitalopram oxalate, which is an antidepressant, was orally administered. Animal behavior tests were performed the next day after 3 weeks of restraint stress stimulation. The open field test (OFT) was followed by the forced swimming test (FST). After the FST evaluation, whole blood was collected from the mice which were then autopsied to excise the hippocampus and prefrontal cortex. These brain tissues were immediately stored at −70° C. until use in experiments. The open field test (OFT) is an experimental test used to assay locomotor activity levels of animals to determine the anti-anxiety and anti-depressive effects of drugs. An OFT box is an arena having the dimensions of 60 cm diameter×20 cm height with the bottom surface divided into 25 cells. […] In the OFT box, the number of cells which the animal voluntarily crossed for 5 minutes was counted. […]

SMILES: O=S(=O)(NCCNC/C=C/c1ccc(Br)cc1)c1cccc2cnccc12 [H89]
- cytotoxicity of inhibitor alone (SH-SY5Y cells): No cytotoxicity

SMILES: COc1cccc(-c2cc(=O)c3ccccc3o2)c1N [PD98059]
- cytotoxicity of inhibitor alone (SH-SY5Y cells): No cytotoxicity

SMILES: CN(C)CCC[C@@]1(c2ccc(F)cc2)OCc2cc(C#N)ccc21 [escitalopram oxalate]
- climbing time [1]: 105.23 ± 15.37 s
- immobility time [1]: 154.74 ± 14.80 s
- swimming time [1]: 146.58 ± 14.84 s
- climbing time (male ICR mice; one-day administration): 12.43 ± 3.47 s
- immobility time (male ICR mice; one-day administration): 194.65 ± 11.55 s
- immobility time (male ICR mice; six-day administration): 169.65 ± 7.15 s
- swimming time (male ICR mice; six-day administration): 128.16 ± 6.65 s
- stress hormone corticosterone in sera (corticosterone): 765 ± 97.5 ng/mL
- number of crossing (locomotor activity) [2]: 182.73±5.60 crossings

SMILES: CO[C@H]1C[C@@H]2CC[C@@H](C)[C@@](O)(O2)C(=O)C(=O)N2CCCC[C@H]2C(=O)O[C@H]([C@H](C)C[C@@H]2CC[C@@H](O)[C@H](OC)C2)CC(=O)[C@H](C)/C=C(\C)[C@@H](O)[C@@H](OC)C(=O)[C@H](C)C[C@H](C)/C=C/C=C/C=C/1C [rapamycin]
- cytotoxicity of inhibitor alone (SH-SY5Y cells): No cytotoxicity

SMILES: COC[C@H]1OC(=O)c2coc3c2[C@@]1(C)C1=C(C3=O)[C@@H]2CCC(=O)[C@@]2(C)C[C@H]1OC(C)=O [wortmanin]
- cytotoxicity of inhibitor alone (SH-SY5Y cells; 24-hour incubation, inhibitor alone): except for the PI3K inhibitor (wortmanin)
